Assay results as given in patent publication US4667033A, “Substituted 6-(thien-2-yl)-3(2H)-pyridazinones” (A. Nattermann & Cie GmbH, priority 1983, dated 1987).
pIC50: −log10 of the molar value.

Assays:
narcotized cat = test: Determination of the myocardial effect in the narcotized cat; assay type: in vivo
Text: II. Determination of the myocardial effect in the narcotized cat.
10 cats of both sexes are narcotized with chloralose-urethane (0.25% urethane, 0.05% chloralose per kilogram). To ease the spontaneous respiration there was effected a tracheotomy. The following hemodynamic parameters were noted down:
The arteriel systolic and diastolic blood pressure by means of a polyethylene cathether in the right-hand Arteria femoralis registered by means of a Statham element type P23 DB. The pulse frequency was obtained from the blood pressure amplitude and registered by means of a cardiotachometer (type EKA-pulse).
The increase of isovolumetric blood pressure was determined by means of a catheter tip manometer of the type PC 350 A of the Millar Company, USA, introduced to the Arteria carotis communis left-ventricullary and was determined by subsequent differentiation (amplifier of Messrs. Sachs).
The known values have been registered continuously by a Beckmann-Dynograph of the type R. There are given the values in an interval of 2 minutes.
The test animals have been heparinized with 500 I.E. of Liquemin®.
The test compounds are dissolved as follows:
Compound A in 50% glycofurol with heating,
Compound B in 10% glycofurol and 5% HCl with heating.
The test compounds have been administered at consecutively increasing dosages at a volume of 0.1 cc./kg. (Arteria femoralis). The total time of injection was […]. The next dose has been administered only after the complete dying-out of the effect of the previous administration.

[1] = test system: isolated right-hand atrium; test: Chronotropic effect in spontaneously pulsing right-hand atrium of guinea pigs; parameters: species or system guinea pig; conditions: Cavia porcellus, mean percentage change to starting value, six determinations; for activation at 100 µM: 1 × 10^-4 mol/l, A in 1 × 10^-4 molar citric acid, B in tetraglycol and dilute hydrochloric acid
Experimental: (§1) I. Test to show inotropic effectiveness in the isolated atrium of guinea pigs.
(§2) The measurements have been effected on isolated atria of guinea pigs. The effect to pulse frequency (chronotropy) is determined at the spontaneously pulsing right-hand atrium. The effect to the contractility (inotropy) is determined at the electrically stimulated left-hand atrium. The mean values of the percentage change to the starting value from six different determinations in each test is given hereinafter.

[2] = test system: isolated left-hand atrium; test: Inotropic effectiveness in electrically stimulated left-hand atrium of guinea pigs; parameters: species or system guinea pig; conditions: Cavia porcellus, mean percentage change to starting value, six determinations, read-out: Inotropic Effect; for activation at 100 µM: 1 × 10^-4 mol/l, A in 1 × 10^-4 molar citric acid, B in tetraglycol and dilute hydrochloric acid
Experimental: as §1, §2

benzodiazepin-receptors = test: Inhibition of 3H-Flunitrazepam binding (benzodiazepin-receptors); conditions: for pIC50: log-probit-analysis
Text: (§3) III. Determination of activity to central nervous system.
(§4) The following compounds have been tested for their activity to benzodiazepin-receptors and imipramin-fixation sites in comparison to the known compounds Amitriptylinoxid and Medazepam:
(§5) The determination of their inhibitory activity has been effected corresponding to H. W. Damm et al., Res. Comm. chem. path. Pharmacol. 22, 597-600 (1978) or, respectively, M. Briley et al., Eur. J. Pharmacol. 72, 377-380 (1981). The separation of the bound from the free ligand concentration is effected by filtration. The used ligands Flunitrazepam and Imipramin has been marked by tritium.
(§6) Half maximum inhibitory values have been determined by means of a […]

imipramin-fixation sites = target: T1, imipramin-fixation sites (Rattus norvegicus, UniProt P31652); test: Inhibition of 3H-Imipramin binding (imipramin-fixation sites); conditions: for pIC50: log-probit-analysis
T1 construct: from tissue
T1 sequence (P31652 whole entry): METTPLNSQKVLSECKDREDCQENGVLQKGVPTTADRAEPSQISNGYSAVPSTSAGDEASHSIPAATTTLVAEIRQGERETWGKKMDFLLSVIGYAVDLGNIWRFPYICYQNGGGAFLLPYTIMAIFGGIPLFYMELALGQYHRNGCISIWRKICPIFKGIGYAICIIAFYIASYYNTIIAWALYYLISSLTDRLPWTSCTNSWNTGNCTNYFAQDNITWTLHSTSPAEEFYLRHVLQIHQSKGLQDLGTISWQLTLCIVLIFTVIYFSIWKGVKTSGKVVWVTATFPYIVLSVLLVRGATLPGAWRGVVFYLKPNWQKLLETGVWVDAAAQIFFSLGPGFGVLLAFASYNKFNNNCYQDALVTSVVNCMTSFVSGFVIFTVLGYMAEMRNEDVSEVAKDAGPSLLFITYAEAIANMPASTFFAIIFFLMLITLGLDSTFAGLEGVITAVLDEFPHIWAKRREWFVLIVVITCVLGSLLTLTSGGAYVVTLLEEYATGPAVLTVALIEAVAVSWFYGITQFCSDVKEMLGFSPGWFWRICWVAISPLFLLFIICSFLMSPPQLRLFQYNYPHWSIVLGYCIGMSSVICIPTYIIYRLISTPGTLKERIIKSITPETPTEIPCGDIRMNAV
Text: as §3, §4, §5, §6

[3] = 1 × 10^-3 mol/l, in tetraglycol and dilute hydrochloric acid

With O=c1ccc(-c2ccc(Cn3ccnc3)s2)n[nH]1 [Compound A, 6-[5-(Imidazol-1-yl-methyl)-thien-2-yl]-3(2H)-pyridazinone] the “Blood Pressure diast.” value (narcotized cat; 0.1 mg/kg i.v.) was -1%, the “Blood Pressure syst.” value (narcotized cat; 0.1 mg/kg i.v.) was “+1%” and the “Myocardial Contractility” value (narcotized cat; 0.1 mg/kg i.v.) was “+24%”. The “Pulse Frequency” value (narcotized cat; 0.1 mg/kg i.v.) was “+1%”, the “Blood Pressure diast.” value (narcotized cat; 0.316 mg/kg i.v.) was -6% and the “Blood Pressure syst.” value (narcotized cat; 0.316 mg/kg i.v.) was 0%. For the same molecule, the “Myocardial Contractility” value (narcotized cat; 0.316 mg/kg i.v.) was “+32%”, the “Pulse Frequency” value (narcotized cat; 0.316 mg/kg i.v.) was “+1%” and the “Blood Pressure diast.” value (narcotized cat; 1.0 mg/kg i.v.) was -18%. For the same molecule, the “Blood Pressure syst.” value (narcotized cat; 1.0 mg/kg i.v.) was -8%, the “Myocardial Contractility” value (narcotized cat; 1.0 mg/kg i.v.) was “+42%” and the “Pulse Frequency” value (narcotized cat; 1.0 mg/kg i.v.) was -9%. The “Blood Pressure diast.” value (narcotized cat; 3.16 mg/kg i.v.) was -33%, the “Blood Pressure syst.” value (narcotized cat; 3.16 mg/kg i.v.) was -19% and the “Myocardial Contractility” value (narcotized cat; 3.16 mg/kg i.v.) was “+51%”. The “Pulse Frequency” value (narcotized cat; 3.16 mg/kg i.v.) was -15%, the activation at 100 µM [1] was 19% and the activation at 100 µM [2] was 44%.

Cl.O=c1ccc(-c2ccc(Cn3ccnc3)s2)nn1CCN1CCCCC1 [F, 6-[5-(Imidazol-1-yl-methyl)-thien-2-yl]-2-(2-piperidino-ethyl)-3(2H)-pyridazinon-hydrochloride] was tested, and the “3H-Flunitrazepam % Inhibition” value (benzodiazepin-receptors; 1 × 10^-4 mole/l) was 66%, the “3H-Flunitrazepam % Inhibition” value (benzodiazepin-receptors; 1 × 10^-6 mole/l) was 12% and the pIC50 (benzodiazepin-receptors) was 4.05. For the same molecule, the “3H-Imipramin % Inhibition” value (imipramin-fixation sites; 1 × 10^-4) was 62%, the “3H-Imipramin % Inhibition” value (imipramin-fixation sites; 1 × 10^-6 mole/l) was 7% and the pIC50 (imipramin-fixation sites) was 5.15.

Cc1cc(-c2ccccc2)nn(CCN2CCOCC2)c1=O.Cl [H, 4-Methyl-2-(2-morpholino-ethyl)-6-phenyl-3(2H)-pyridazinon-hydrochloride, reference compound] was tested, and the “3H-Flunitrazepam % Inhibition” value (benzodiazepin-receptors; 1 × 10^-4 mole/l) was 14%, the “3H-Flunitrazepam % Inhibition” value (benzodiazepin-receptors; 1 × 10^-6 mole/l) was 0% and the “3H-Imipramin % Inhibition” value (imipramin-fixation sites; 1 × 10^-4) was 36%. For the same molecule, the “3H-Imipramin % Inhibition” value (imipramin-fixation sites; 1 × 10^-6 mole/l) was 8%.

For Cl.O=c1ccc(-c2ccc(Cn3ccnc3)s2)nn1CCCN1CCCCC1 [G, 6-[5-(Imidazol-1-yl-methyl)-thien-2-yl]-2-(3-piperidino-propyl)-3(2H)-pyridazinon-hydrochloride], the “3H-Flunitrazepam % Inhibition” value (benzodiazepin-receptors; 1 × 10^-4 mole/l) was 40%, the “3H-Flunitrazepam % Inhibition” value (benzodiazepin-receptors; 1 × 10^-6 mole/l) was 4% and the “3H-Imipramin % Inhibition” value (imipramin-fixation sites; 1 × 10^-4) was 86%. The “3H-Imipramin % Inhibition” value (imipramin-fixation sites; 1 × 10^-6 mole/l) was 27% and the pIC50 (imipramin-fixation sites) was 5.52.

Nc1cc(-c2ccncc2)c[nH]c1=O [Compound B, 3-Amino-5-(4-pyridyl)-2-pyridone, reference compound] was tested, and the “Blood Pressure diast.” value (narcotized cat; 0.1 mg/kg i.v.) was -3%, the “Blood Pressure syst.” value (narcotized cat; 0.1 mg/kg i.v.) was -3% and the “Myocardial Contractility” value (narcotized cat; 0.1 mg/kg i.v.) was “+5%”. The “Pulse Frequency” value (narcotized cat; 0.1 mg/kg i.v.) was 0%, the “Blood Pressure diast.” value (narcotized cat; 0.316 mg/kg i.v.) was -4% and the “Blood Pressure syst.” value (narcotized cat; 0.316 mg/kg i.v.) was -2%. For the same molecule, the “Myocardial Contractility” value (narcotized cat; 0.316 mg/kg i.v.) was “+25%”, the “Pulse Frequency” value (narcotized cat; 0.316 mg/kg i.v.) was “+1%” and the “Blood Pressure diast.” value (narcotized cat; 1.0 mg/kg i.v.) was -22%. For the same molecule, the “Blood Pressure syst.” value (narcotized cat; 1.0 mg/kg i.v.) was -15%, the “Myocardial Contractility” value (narcotized cat; 1.0 mg/kg i.v.) was “+40%” and the “Pulse Frequency” value (narcotized cat; 1.0 mg/kg i.v.) was 0%. For the same molecule, the “Blood Pressure diast.” value (narcotized cat; 3.16 mg/kg i.v.) was -51%, the “Blood Pressure syst.” value (narcotized cat; 3.16 mg/kg i.v.) was -35% and the “Myocardial Contractility” value (narcotized cat; 3.16 mg/kg i.v.) was “+30%”. For the same molecule, the “Pulse Frequency” value (narcotized cat; 3.16 mg/kg i.v.) was -20%, the activation at 1000 µM [1, 3] was 20% and the activation at 100 µM [1] was 2%. The activation at 1000 µM [2, 3] was 21% and the activation at 100 µM [2] was 4%.

Work on C[N+](C)([O-])CCC=C1c2ccccc2CCc2ccccc21 [Amitriptylinoxid, reference compound] yielded a pIC50 (imipramin-fixation sites) of 4.62.

For Cl.O=c1ccc(-c2ccc(Cn3cccn3)s2)nn1CCN1CCOCC1 [D, 2-(2-Morpholino-ethyl)-6-[5-(pyrazol-1-yl-methyl)-thien-2-yl]-3(2H)-pyridazinon-hydrochloride], the “3H-Flunitrazepam % Inhibition” value (benzodiazepin-receptors; 1 × 10^-4 mole/l) was 49%, the “3H-Flunitrazepam % Inhibition” value (benzodiazepin-receptors; 1 × 10^-6 mole/l) was 2% and the pIC50 (benzodiazepin-receptors) was 4.22. The “3H-Imipramin % Inhibition” value (imipramin-fixation sites; 1 × 10^-4) was 87%, the “3H-Imipramin % Inhibition” value (imipramin-fixation sites; 1 × 10^-6 mole/l) was 34% and the pIC50 (imipramin-fixation sites) was 4.70.

CN1CCN=C(c2ccccc2)c2cc(Cl)ccc21 [Medazepam, reference compound] was tested, and the pIC50 (benzodiazepin-receptors) was 5.41.

With Cl.O=c1ccc(-c2ccc(Cn3ccnc3)s2)nn1CCN1CCOCC1 [E, 6-[5-(Imidazol-1-yl-methyl)-thien-2-yl]-2-(2-morpholino-ethyl)-3(2H)-pyridazinon-hydrochloride] the “3H-Flunitrazepam % Inhibition” value (benzodiazepin-receptors; 1 × 10^-4 mole/l) was 74%, the “3H-Flunitrazepam % Inhibition” value (benzodiazepin-receptors; 1 × 10^-6 mole/l) was 19% and the pIC50 (benzodiazepin-receptors) was 5.05. For the same molecule, the “3H-Imipramin % Inhibition” value (imipramin-fixation sites; 1 × 10^-4) was 40% and the “3H-Imipramin % Inhibition” value (imipramin-fixation sites; 1 × 10^-6 mole/l) was 4%.
